According to the METLIN SMRT retention time set (Domingo-Almenara et al. 2019):

Assay: gradient 5% acetonitrile 3 min, to 50% in 2 min, to 85% in 15 min, held 3 min, 100 µL/min
Details: column: Zorbax Extend-C18 2.1 x 50 mm; eluents: water / acetonitrile, 0.1% formic acid
Outline: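 Values are retention times taken from adduct peaks that software picked and an analyst inspected. The pure standards were run as mixtures of ~100 molecules on HPLC linked to a quadrupole time-of-flight mass spectrometer, in positive and negative ionization mode. A Zorbax Extend-C18 column (2.1 × 50 mm, 1.8 μm) was used at 100 μL/min with water and acetonitrile, each including 0.1% formic acid.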

SMILES: O=C(NCc1cccc(F)c1)c1cc(N2CCCC2)n2nccc2n1
- RP-LC retention time: 946 s

SMILES: Cc1cc2nn(CC(=O)NCc3ccccc3)c(=O)n2c(-c2cccc(F)c2)n1
- RP-LC retention time: 627 s

SMILES: CN(Cc1ccco1)C(=O)CC1CCN(C(=O)c2cc3ccccc3[nH]2)CC1
- RP-LC retention time: 826 s

SMILES: C#CCNc1ccc(C(=O)OCC)cc1
- RP-LC retention time: 879 s

SMILES: CC(=O)NC1(C(=O)O)CCCC1
- RP-LC retention time: 617 s

SMILES: CCn1c(=O)c2ccccc2n(Cc2nc(-c3ccc4c(c3)OCO4)no2)c1=O
- RP-LC retention time: 960 s

SMILES: Cc1ncoc1C(=O)N1CCC(N2C(=O)C(OCC3CC3)C23CCOCC3)CC1 (stereo not given)
- RP-LC retention time: 634 s

SMILES: CC1(C)CC(NC(=O)COc2ccccc2Cl)CC(C)(C)N1
- RP-LC retention time: 618 s

SMILES: Cc1noc(C)c1CN1CCN(C(=O)NCc2cccc(F)c2)CC1
- RP-LC retention time: 599 s

SMILES: Cc1cccc(Cn2nc3ccc(S(=O)(=O)N4CCCCC4)cn3c2=O)c1
- RP-LC retention time: 915 s

SMILES: CC(C)Oc1ccc(CNC(=O)C2CCCN(c3nn4c(=O)c5c(nc4s3)CCCC5)C2)cc1 (stereo not given)
- RP-LC retention time: 844 s

SMILES: Cc1ccc(CNC(=O)C2CCCN(c3nccnc3Sc3ccc(C)cc3)C2)cc1 (stereo not given)
- RP-LC retention time: 1090 s

SMILES: CCc1nc(-c2csc(S(=O)(=O)N3CCC(C(=O)Nc4ccc(C)c(C)c4)CC3)c2)no1
- RP-LC retention time: 660 s

SMILES: CCCC(=O)Nc1nc(-c2ccc3c(c2)N(CCC)C(=O)CO3)cs1
- RP-LC retention time: 935 s

SMILES: COc1ccc(NC(=O)N2CCCC(Cn3cnc4cccnc43)C2)cc1Cl (stereo not given)
- RP-LC retention time: 692 s

SMILES: CCC(C)NC(=O)Cn1c2ccccc2c2ncn(Cc3nc(-c4ccccc4)no3)c(=O)c21 (stereo not given)
- RP-LC retention time: 882 s

SMILES: CCc1ccc(NC(=O)C2CCN(c3c(C(=O)N(CC)CC)cnc4snc(C)c34)CC2)cc1
- RP-LC retention time: 687 s

SMILES: Cc1nnc(-c2cc(S(=O)(=O)NC3CCCCCCC3)c(C)n2C)o1
- RP-LC retention time: 897 s

SMILES: CC(C)C(=O)Nc1ccc(C2(C(=O)O)CCC2)cc1
- RP-LC retention time: 720 s

SMILES: COCCN1C(=O)c2cc3ccsc3n2CC1(C)C(=O)NCc1ccc(Cl)cc1 (stereo not given)
- RP-LC retention time: 837 s

SMILES: CCc1nc(-c2csc(S(=O)(=O)N3CCCC(C(=O)NCc4ccc(F)cc4)C3)c2)no1 (stereo not given)
- RP-LC retention time: 976 s

SMILES: O=C(NCc1ccc(F)cc1)C1CCCN(c2ncnc3c2oc2ccccc23)C1 (stereo not given)
- RP-LC retention time: 746 s

SMILES: CCN(CC)S(=O)(=O)c1cc(-c2nnc(-c3ccc(Br)cc3)o2)ccc1C
- RP-LC retention time: 1230 s

SMILES: O=C(CSc1ccc2nnc(-c3cccnc3)n2n1)NC1CCCCC1
- RP-LC retention time: 592 s

SMILES: O=C(NCCc1c[nH]c2ccc(F)cc12)c1cn(-c2ccc(F)cc2)nn1
- RP-LC retention time: 914 s

SMILES: CS(=O)(=O)N1C[C@@H](COc2cccnc2)[C@H](c2ccccn2)C1
- RP-LC retention time: 554 s

SMILES: CCOC(=O)c1c(C)[nH]c(C(=O)N2CCCC(C(=O)NCCCc3ccccc3)C2)c1C (stereo not given)
- RP-LC retention time: 867 s

SMILES: CCCc1nnc(NC(=O)CSc2ccc(NC(=O)C3CC3)nn2)s1
- RP-LC retention time: 694 s

SMILES: Cc1nc(-c2csc(S(=O)(=O)N3CCCC(C(=O)Nc4ccc(C)c(Cl)c4)C3)c2)no1 (stereo not given)
- RP-LC retention time: 940 s

SMILES: CCc1nc2ccccc2c(=O)n1Cc1noc(-c2cc(OC)c(OC)c(OC)c2)n1
- RP-LC retention time: 919 s

SMILES: CNC(=O)N1CCCC(c2cccc(C(=O)NCc3ccc(OC(C)C)cc3)c2)C1 (stereo not given)
- RP-LC retention time: 835 s

SMILES: CCN1CCN(c2cc(C(=O)O)c3cc(NS(=O)(=O)c4cc(F)ccc4C)ccc3n2)CC1
- RP-LC retention time: 607 s

SMILES: Cc1ccc(C2CC(=O)N(c3ccc(C(C)C)cc3)C(=O)C2)cc1
- RP-LC retention time: 1120 s

SMILES: CNC(=O)[C@@H]1CN(C(=O)Cn2c(=O)oc3ccccc32)C[C@H]1COC
- RP-LC retention time: 594 s

SMILES: CCOc1ccccc1NC(=O)C1CCN(S(=O)(=O)c2cn(C)cn2)CC1
- RP-LC retention time: 868 s

SMILES: CCCCN(C)C(=O)Cn1cncc(-c2nc(-c3ccccc3)cs2)c1=O
- RP-LC retention time: 946 s

SMILES: C/C(=N\Nc1nc2ccccc2s1)c1ccncn1
- RP-LC retention time: 895 s

SMILES: COC[C@@H]1CN(c2cnccn2)C[C@H]1C(=O)NC(C)C
- RP-LC retention time: 572 s

SMILES: O=C(Cn1nc2c(Oc3ccccc3)nccn2c1=O)NCCCc1ccccc1
- RP-LC retention time: 871 s

SMILES: O=C(NCc1cccc(Cl)c1)c1cc(C2CC2)n2nccc2n1
- RP-LC retention time: 974 s

SMILES: COC(=O)c1cc(OCC(=O)Nc2ccc(F)cc2)c2cc(OC)ccc2n1
- RP-LC retention time: 810 s

SMILES: COCCC(=O)N1CCCN(C2=NS(=O)(=O)C(c3ccc(C(C)C)cc3)=C2C)CC1
- RP-LC retention time: 817 s

SMILES: CCCCNS(=O)(=O)c1cc(-c2[nH]ncc2C(=O)N2CCCC2)oc1C
- RP-LC retention time: 668 s

SMILES: Cc1ccc(N2CC(C(=O)N3CCCC3c3nc(-c4cccc(C)c4)no3)CC2=O)cc1 (stereo not given)
- RP-LC retention time: 984 s

SMILES: Cc1cccnc1NC(=O)C1CCCN(c2ccc3cc(S(=O)(=O)N4CCCC4)ccc3n2)C1 (stereo not given)
- RP-LC retention time: 624 s

SMILES: Cc1cccc(Sc2nccnc2N2CCCC(C(=O)NCCC(C)C)C2)c1 (stereo not given)
- RP-LC retention time: 1140 s

SMILES: CSc1ccc(CCNC(=O)C2CCCN(c3ncnc4c3nc3n4CCCCC3)C2)cc1 (stereo not given)
- RP-LC retention time: 820 s

SMILES: CCN(CC)C(=O)c1ccc(-n2nc(C)c3c2CCCC3=O)cc1
- RP-LC retention time: 691 s

SMILES: CCOC(=O)c1c(NCCC(C)C)c2cc(Cl)ccc2[nH]c1=O
- RP-LC retention time: 890 s

SMILES: CC(C(=O)NCc1nn(C)c2ccccc12)c1ccccc1 (stereo not given)
- RP-LC retention time: 792 s

SMILES: CC1=NS(=O)(=O)N(C)C=C1C(=O)OCc1c(C)noc1C
- RP-LC retention time: 776 s

SMILES: Cc1cc2c(cc1S(=O)(=O)N1CCCC1C(=O)NC1CCCC1)OCC(=O)N2 (stereo not given)
- RP-LC retention time: 718 s

SMILES: Cc1ccc(Nc2c(-c3cccc(O)c3)nc3ncccn23)cc1C
- RP-LC retention time: 705 s

SMILES: O=C(Nc1cccc(Cl)c1)Nc1ccc2nc3n(c(=O)c2c1)CCCC3
- RP-LC retention time: 723 s

SMILES: Cc1ccc2c(Nc3ccc(C)c(C)c3)c(C(=O)N3CCC(C)CC3)cnc2n1
- RP-LC retention time: 681 s

SMILES: COc1ccc(NC(=O)C2CCc3nc(N4CCOCC4)ncc3C2)c(C)c1 (stereo not given)
- RP-LC retention time: 702 s

SMILES: Cc1cc(C2CCCN2C(=O)Nc2cc(Cl)ccc2C)on1 (stereo not given)
- RP-LC retention time: 794 s

SMILES: COc1cc(NC(=O)N2CCN(c3cc(-c4ccccc4)ncn3)CC2)cc(OC)c1
- RP-LC retention time: 649 s

SMILES: CN(C1CCc2nn(CC3CC3)c(=O)n2CC1)S(=O)(=O)c1cccc(Cl)c1 (stereo not given)
- RP-LC retention time: 818 s

SMILES: Cc1noc(-c2ccc(-n3cnc(C(=O)NCc4ccc(Cl)cc4)c3)nc2)n1
- RP-LC retention time: 865 s

SMILES: CCc1nc2cc(-c3noc(-c4cc(OC)cc(OC)c4)n3)ccc2o1
- RP-LC retention time: 1210 s

SMILES: CC1CCN(C(=O)Cn2nc(C(=O)N3CCCC3)c3ccccc32)CC1
- RP-LC retention time: 846 s

SMILES: CSc1ccc(-c2noc(Cn3ncn4nc(-c5ccccc5Cl)cc4c3=O)n2)cc1
- RP-LC retention time: 1200 s

SMILES: COc1ccc(-c2cc(=S)ss2)cc1
- RP-LC retention time: 1090 s

SMILES: Cc1n[nH]c(C)c1S(=O)(=O)N1CCN(c2ccc3nnc(C4CC4)n3n2)CC1
- RP-LC retention time: 604 s

SMILES: CCOC(=O)C1CCCN(C(=O)CCC(=O)N2CCCn3nc(-c4cn(C)c5ccccc45)cc32)C1 (stereo not given)
- RP-LC retention time: 803 s

SMILES: O=C(NCCCN1CCCC1=O)c1nc2ccccn2c1-c1ccc(Cl)cc1
- RP-LC retention time: 690 s

SMILES: Cc1cc(-c2nnc(-c3ccccc3)o2)c(C)n1CC(=O)Nc1ccc2c(c1)OCCO2
- RP-LC retention time: 902 s

SMILES: CCCNC(=O)N1N=C(c2ccc(N)cc2)c2cc3c(cc2C1C)OCO3 (stereo not given)
- RP-LC retention time: 854 s

SMILES: Cc1cc(C)n2c(Nc3ccc(Cl)cc3)c(-c3ccc(Cl)cc3)nc2n1
- RP-LC retention time: 886 s

SMILES: CCN(CC)CCCCN1c2ccccc2Oc2ccc(Cl)cc21
- RP-LC retention time: 843 s

SMILES: Cc1ccc(CNC(=O)C2(CCO)CCN(Cc3ccccc3)C2)o1 (stereo not given)
- RP-LC retention time: 656 s

SMILES: CN1CCCCCC(O)c2cc(C(=O)NC3CCCCC3)ccc21 (stereo not given)
- RP-LC retention time: 654 s

SMILES: Cc1cccc(Cc2c(C)nc3c(C(=O)O)cnn3c2C)c1
- RP-LC retention time: 788 s

SMILES: CCn1cc(CCNC(=O)Nc2ccc3c(c2)OCCO3)c2cccnc21
- RP-LC retention time: 661 s

SMILES: O=C(CCc1c(-c2ccc(Cl)cc2)nc2ccccn12)NCCCc1ccccc1
- RP-LC retention time: 719 s

SMILES: CCOc1ccc(C(=O)NC2CCN(c3cc(-c4cccs4)[nH]n3)C2)cc1 (stereo not given)
- RP-LC retention time: 658 s

SMILES: CCNC(=O)C1CCCN(c2nc3ncn(CC(=O)Nc4ccc(CC)cc4)c(=O)c3s2)C1 (stereo not given)
- RP-LC retention time: 661 s

SMILES: Cc1ccc(N2CCN(CC(O)COc3cccc(C)c3)CC2)cc1 (stereo not given)
- RP-LC retention time: 782 s

SMILES: Cn1nccc1-c1cccc(-c2noc(-c3cc(Cl)ccc3F)n2)c1
- RP-LC retention time: 1210 s

SMILES: Cc1ccccc1-c1nc(C2CCN(S(=O)(=O)c3cccc(F)c3)CC2)no1
- RP-LC retention time: 1160 s

SMILES: COc1ncc(C(=O)NCc2ccc(Cl)cc2)cn1
- RP-LC retention time: 751 s

SMILES: CCOCCCNC(=O)C1CCN(c2nccnc2Oc2cccc(C)c2)CC1
- RP-LC retention time: 861 s

SMILES: O=C(Nc1cccn2ncnc12)c1ccccc1C(F)(F)F
- RP-LC retention time: 765 s

SMILES: CC(=O)N1CCc2cc(S(=O)(=O)C(C)CC(=O)N3CCN(c4cccc(Cl)c4)CC3)ccc21 (stereo not given)
- RP-LC retention time: 891 s

SMILES: O=C(CC1CCCC1)N1CCN(c2nnc3ccc(C(F)(F)F)cn23)CC1
- RP-LC retention time: 797 s

SMILES: O=C(NCCN1CCCCC1)c1nc2ccccn2c1-c1ccsc1
- RP-LC retention time: 527 s

SMILES: Cc1nc2ccn(Cc3ccco3)c(=O)c2cc1C(=O)NC1CCCCC1
- RP-LC retention time: 751 s

SMILES: Cc1ccc(NC(=O)C2CCCN2S(=O)(=O)c2cc3c(cc2Cl)NC(=O)CO3)c(C)c1 (stereo not given)
- RP-LC retention time: 868 s

SMILES: COCCn1ncc(N2CCC(NC(=O)C(C)(C)C)CC2)cc1=O
- RP-LC retention time: 607 s
